Assay [1] concerns the target [Pyruvate dehydrogenase (acetyl-transferring)] kinase isozyme 2, mitochondrial (Homo sapiens, UniProt Q15119). Briefly: Inhibition of human recombinant PDHK2 co-complexed with porcine PDH using sodium pyruvate, coenzymeA and NAD as substrates preincubated with enzyme complex for 45 mins followed by substrates addition and further incubated for 90 mins in presence of ATP at Km concentration by spectrophotometric assay.

Assay [2] concerns the target T1, [Pyruvate dehydrogenase (acetyl-transferring)] kinase isozyme 4, mitochondrial (Homo sapiens, UniProt Q16654). Briefly: Inhibition of human recombinant PDHK4 co-complexed with porcine PDH using sodium pyruvate, coenzymeA and NAD as substrates preincubated with enzyme complex for 45 mins followed by substrates addition and further incubated for 90 mins in presence of ATP at Km concentration by spectrophotometric assay.
Target sequence in this assay (Q16654 whole entry): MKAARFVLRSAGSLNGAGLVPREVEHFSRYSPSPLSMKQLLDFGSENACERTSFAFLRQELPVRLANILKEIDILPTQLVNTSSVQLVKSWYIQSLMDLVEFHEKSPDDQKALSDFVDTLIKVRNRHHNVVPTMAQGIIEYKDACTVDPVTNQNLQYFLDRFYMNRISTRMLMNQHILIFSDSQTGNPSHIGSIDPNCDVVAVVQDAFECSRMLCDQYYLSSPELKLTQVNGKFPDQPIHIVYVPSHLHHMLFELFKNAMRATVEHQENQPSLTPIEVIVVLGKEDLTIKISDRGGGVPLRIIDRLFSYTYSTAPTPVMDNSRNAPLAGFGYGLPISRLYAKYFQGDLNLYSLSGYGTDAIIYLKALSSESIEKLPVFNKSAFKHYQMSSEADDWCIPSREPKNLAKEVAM

The target in assay [3] is T1, [Pyruvate dehydrogenase (acetyl-transferring)] kinase isozyme 4, mitochondrial. The assay is described as follows: Inhibition of human recombinant PDHK4 co-complexed with porcine PDH at 30 uM using sodium pyruvate, coenzymeA and NAD as substrates preincubated with enzyme complex for 45 mins followed by substrates addition and further incubated for 90 mins in presence of ATP at Km concentration by spectrophotometric assay relative to control. As to conditions: time 135.0 min.
Target sequence in this assay (Q16654 whole entry, looked up): as the sequence (Q16654 whole entry) above

Assay [4] concerns the target T2, Branched-chain alpha-ketoacid dehydrogenase kinase (Homo sapiens, UniProt O14874). The assay is described as follows: Inhibition of human recombinant BCKDK at >100 uM incubated for 60 mins in presence of ATP by ADP-Glo reagent based luminescent assay relative to control.
The target of assay [5] is T2, Branched-chain alpha-ketoacid dehydrogenase kinase. The assay is described as follows: Inhibition of human recombinant BCKDK incubated for 60 mins in presence of ATP by ADP-Glo reagent based luminescent assay.
The target of assay [6] is [Pyruvate dehydrogenase (acetyl-transferring)] kinase isozyme 1, mitochondrial (Homo sapiens, UniProt Q15118). The assay is described as follows: Inhibition of human recombinant PDHK1 co-complexed with porcine PDH using sodium pyruvate, coenzymeA and NAD as substrates preincubated with enzyme complex for 45 mins followed by substrates addition and further incubated for 90 mins by spectrophotometric assay.
Chain of [Pyruvate dehydrogenase (acetyl-transferring)] kinase isozyme 1, mitochondrial (Q15118 whole entry): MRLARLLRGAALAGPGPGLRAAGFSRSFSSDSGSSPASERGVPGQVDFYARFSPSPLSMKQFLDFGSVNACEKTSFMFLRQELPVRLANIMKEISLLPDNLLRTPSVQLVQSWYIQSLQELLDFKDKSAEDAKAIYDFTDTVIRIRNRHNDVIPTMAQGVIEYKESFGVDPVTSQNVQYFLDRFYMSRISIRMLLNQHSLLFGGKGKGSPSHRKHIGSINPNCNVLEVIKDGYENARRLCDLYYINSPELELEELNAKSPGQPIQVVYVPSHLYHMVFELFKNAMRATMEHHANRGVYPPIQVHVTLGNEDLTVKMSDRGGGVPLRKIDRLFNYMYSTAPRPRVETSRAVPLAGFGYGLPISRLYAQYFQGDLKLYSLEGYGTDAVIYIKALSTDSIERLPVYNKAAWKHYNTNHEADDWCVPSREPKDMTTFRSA

Take `CC[C@@H]1C[C@H](c2ccc(C(=O)O)[nH]2)CN1c1nc(C)nc2[nH]c3c(C4CC4)cccc3c12`: the IC50 in assay [1] came out at 9.2 nM; in assay [2], 40.6 nM.

For `Cc1nc(N2CCC[C@@H]2CO)c2c(n1)[nH]c1c(C3CC3)cccc12`, the half-inhibitory concentration (IC50) in assay [1] is 8520 nM; in assay [2] it was more than 30000 nM. In assay [3], the inhibition amounted to 21%.

As for `Cc1nc(N2C[C@@](Cc3ccccc3)(C(N)=O)C[C@H]2CO)c2c(n1)[nH]c1c(C3CC3)cccc12`, the results for the half-inhibitory concentration (IC50) in assay [1] and in assay [2] were 4.5 nM and 260 nM, respectively.

Regarding `Cc1nc2[nH]c3c(C4CC4)cccc3c2cc1-c1nnc(C(C)C)o1`, the figures for the IC50 in assay [1] and in assay [2] were 130 nM and 592 nM, respectively.

Take `Cc1nc(N2C[C@](CO)(Cc3ccccc3)C[C@H]2CO)c2c(n1)[nH]c1c(C3CC3)cccc12`: the concentration for half-maximal inhibition (IC50) came to 14.6 nM in assay [1] and 292 nM in assay [2].

Take `Cc1nc(N2CCCC2)c2c(n1)[nH]c1c(C3CC3)cccc12`: the half-inhibitory concentration (IC50) in assay [1] was determined as 2410 nM; in assay [2], 10300 nM.

Regarding `Cc1nc(N2C[C@H](Cc3ccccc3)C[C@H]2CO)c2c(n1)[nH]c1c(C3CC3)cccc12`, the half-inhibitory concentration (IC50) in assay [1] stood at 73 nM; in assay [2], 1120 nM.

For `Cc1nc(N2C[C@H](c3ccccc3)C[C@H]2CO)c2c(n1)[nH]c1c(C3CC3)cccc12`, the IC50 came out at 1010 nM in assay [1] and 7700 nM in assay [2].

Regarding `Cc1nc2[nH]c3c(C4CC4)cccc3c2cc1-c1ccccc1`, the 50% inhibitory concentration (IC50) in assay [1] came to 5330 nM; in assay [2] it was 7490 nM.

For the compound `COC(=O)c1cc2c(nc1C)[nH]c1c(C3CC3)cccc12`, the half-maximal inhibitory concentration (IC50) in assay [1] worked out at 210 nM; in assay [2], 1540 nM.

Turning to `Cc1nc2[nH]c3c(C4CC4)cccc3c2cc1-c1nnc(C(NC(=O)CCc2ccccc2)C(C)C)o1` (stereo not drawn), the half-inhibitory concentration (IC50) in assay [1] was 4.2 nM; in assay [2], 24.1 nM; in assay [5] it was more than 100000 nM. Further, the inhibition in assay [4] came to 3%.

On to `Cc1nc2[nH]c3c(C4CC4)cccc3c2cc1-c1nnc(C(CC(=O)NCc2ccccc2)C(C)C)o1` (stereo not drawn), for which the figures for the concentration for half-maximal inhibition (IC50) in assay [1], in assay [2] and in assay [5] were 6 nM, 32.9 nM and more than 100000 nM, respectively. The inhibition in assay [4] worked out at 18%.

For the compound `Cc1nc(N2C[C@@H](c3ccc(C(N)=O)[nH]3)C[C@H]2CO)c2c(n1)[nH]c1c(C3CC3)cccc12`, the 50% inhibitory concentration (IC50) in assay [1] was 5.5 nM; in assay [2], 17.8 nM.

For the compound `Cc1nc(N2C[C@@H](c3ccc(C(=O)O)[nH]3)C[C@H]2CO)c2c(n1)[nH]c1c(C3CC3)cccc12`, the 50% inhibitory concentration (IC50) in assay [1] came to 5.1 nM; in assay [2], 12.2 nM.

Turning to `Cc1cnc(Cl)nc1-c1ccc(N(Cc2ccccc2)C(=O)c2ccc(O)cc2O)cc1`, the 50% inhibitory concentration (IC50) in assay [1] turned out to be 35 nM; in assay [2], 350 nM.

For the compound `CCc1nnc(-c2cc3c(nc2C)[nH]c2c(C4CC4)cccc23)s1`, the IC50 is 1490 nM in assay [1] and 6620 nM in assay [2].

On to `Cc1ncc2c(n1)[nH]c1c(C3CC3)cccc12`, for which the IC50 in assay [1] is 710 nM; in assay [6], 5870 nM; in assay [5], more than 300000 nM.

Regarding `Cc1ccc2c(n1)[nH]c1c(C3CC3)cccc12`, the IC50 in assay [1] was 2030 nM; in assay [2] it was 11900 nM.

With `CCCc1nnc(-c2cc3c(nc2C)[nH]c2c(C4CC4)cccc23)o1`, the half-inhibitory concentration (IC50) was 91 nM in assay [1] and 292 nM in assay [2].

In the case of `Cc1nc2[nH]c3c(C4CC4)cccc3c2cc1-c1nnc(C(C)C(C)C)o1` (stereo not drawn), the IC50 amounted to 87 nM in assay [1] and 494 nM in assay [2].

As for `CCc1nnc(-c2cc3c(nc2C)[nH]c2c(C4CC4)cccc23)o1`, the half-maximal inhibitory concentration (IC50) was 190 nM in assay [1] and 2120 nM in assay [2].

For `Cc1nc2[nH]c3c(C4CC4)cccc3c2cc1-c1nnc([C@@H](CC(=O)N[C@H](C)c2ccccc2)C(C)C)o1`, the IC50 in assay [1] is 17.1 nM; in assay [2], 61.5 nM.

Consider `Cc1nc(N2CCC[C@H]2CO)c2c(n1)[nH]c1c(C3CC3)cccc12`, for which the results for the IC50 in assay [1] and in assay [2] were 352 nM and 4530 nM, respectively.

`CNC(=O)c1cc2c(nc1C)[nH]c1c(C3CC3)cccc12`: the IC50 is 5510 nM in assay [1] and more than 30000 nM in assay [2]. In addition, the inhibition in assay [3] stood at 35%.

For the compound `CCC1CCCN1c1nc(C)nc2[nH]c3c(C4CC4)cccc3c12` (stereo not drawn), the figures for the IC50 in assay [1] and in assay [2] were 758 nM and 8460 nM, respectively.

With `Cc1nc2[nH]c3c(C4CC4)cccc3c2cc1-c1ccccn1`, the figures for the half-maximal inhibitory concentration (IC50) in assay [1] and in assay [2] were 1510 nM and 2980 nM, respectively.

Take `Cc1nc2[nH]c3c(C4CC4)cccc3c2cc1-c1nnc(CC(C)C)o1`: the values for the IC50 in assay [1] and in assay [2] were 56 nM and 462 nM, respectively.

Turning to `Cc1nnc(-c2cc3c(nc2C)[nH]c2c(C4CC4)cccc23)o1`, the IC50 came out at 490 nM in assay [1] and 1510 nM in assay [2].

These data come from ChEMBL document CHEMBL5055678, “Structure-based drug design of novel and highly potent pyruvate dehydrogenase kinase inhibitors” (Bioorg Med Chem, 2021).
